The text below walks through data of patent publication US8815875B2 (Merck Sharp & Dohme Corp., priority 2008, dated 2014).

The assay has as its target FABP4 (Homo sapiens, UniProt P15090). Put plainly: TdF (Temperature Dependence Fluorescence) assay, thermal shift, FABP4. The assay is classed as binding. From the text:
TdF (Temperature Dependence Fluorescence) Assay for FABP3 and FABP4
The TdF assay was mainly conducted in the 96-well based CHROMO-4 real time fluorescence plate reader (BioRad). The Sypro Orange (Sigma-Aldrich), environmentally sensitive fluorescence dye, was used to monitor the protein folding-unfolding transition. Protein-ligand binding was gauged by the change (or shift) in the unfolding transition temperature (ΔTm) acquired at protein alone with respect to protein in the presence of ligand of interest.
The compound of interest was first prepared in DMSO stock (typical concentration: 10 mM). […] Final percentage of DMSO resided in the sample was 2%. The sample plate was heated from 30° C. to 90° C. with thermal ramping rate of 1° C./min. The fluorescence signals were acquired with excitation and emission wavelengths centered at 490 and 560 nm respectively. The instrument thermal stability was ±0.2° C.
Theoretical basis for TdF-based ligand binding affinity constant
In brief, the binding constant of the ligand at the Tm is expressed as below:
[formula] where To is the midpoint of unfolding for unliganded protein and Tm is the midpoint of unfolding in presence of ligand. [LTm] is free ligand at Tm. The ΔHu and ΔCpu are the enthalpy of unfolding and heat capacity change of unfolding for the protein respectively.
The nonlinear regression fitting in general readily reaches convergence by properly constraining the initial values for the fitting parameters (e.g. the initial “guess” for the ΔHu was constrained to 120 kcal/mol; initial Yn and mn were set to 1 and zero to best represent the melting curve along the low temperature region; negative slope of −0.5 was initially chosen for mu; initial Tm was also constrained to 50° C.).
[formula] (see Brandts et al and Mayhood et al, shown above) where ΔHL (T) is the van't Hoff enthalpy of ligand binding at temperature T and ΔCpL is the heat capacity upon ligand binding. For simplicity, the ΔCpL and ΔHL (T) were set to zero and −7 kcal/mol respectively. […] TdCD (Temperature-dependent Circular Dichroism) Assay for FABP3/4/5

Chain of FABP4 (P15090 whole entry, species assumed): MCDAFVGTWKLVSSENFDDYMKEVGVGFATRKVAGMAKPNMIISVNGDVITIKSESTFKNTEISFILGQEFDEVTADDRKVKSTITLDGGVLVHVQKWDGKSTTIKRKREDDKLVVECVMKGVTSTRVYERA

As for `Cc1c(Cl)cccc1OC(C)c1cc(=O)n2nc(-c3ccccc3)nc2[nH]1` (single isomer, unassigned) [37-6], the “FABP4 TdF Kd” value is reported as “B (0.5 ≦ B < 0.001 μM)”. Same read-out and setting: the same measure for `Cc1c(Cl)cccc1OC(C)c1cc(=O)n2nc(-c3ccccc3)nc2[nH]1` (single isomer, unassigned) [37-7]: “B (0.5 ≦ B < 0.001 μM)”; for `CCc1ccc(OCc2cc(=O)n3nc(-c4ccccc4)nc3[nH]2)cc1` [1-3]: “B (0.5 ≦ B < 0.001 μM)”; for `O=c1cc(COc2cccc3c2CCC3)[nH]c2nc(-c3ccccc3)nn12` [1-6]: “B (0.5 ≦ B < 0.001 μM)”.

Turning to `O=c1cc(COc2ccc(C(F)(F)F)cc2)[nH]c2nc(-c3ccccc3)nn12` [1-7], the Kd was over 500 nM. The same measure, in the same setting: the same measure for `O=c1cc(COc2ccc(Br)c(Cl)c2)[nH]c2nc(-c3ccccc3)nn12` [1-8]: over 500 nM. Regarding `O=c1cc(COC2CCc3ccccc32)[nH]c2nc(-c3ccccc3)nn12` (stereo not drawn) [1-9], the “FABP4 TdF Kd” value is “B (0.5 ≦ B < 0.001 μM)”. The same measure, in the same setting: the entry for `O=c1cc(COc2cccc3c2CCCC3)[nH]c2nc(-c3ccccc3)nn12` [1-10] is “B (0.5 ≦ B < 0.001 μM)”; for `O=c1cc(Cn2ccc3c(Cl)cccc32)[nH]c2nc(-c3ccccc3)nn12` [1-11] it is “B (0.5 ≦ B < 0.001 μM)”.

For the compound `O=c1cc(Cn2ncc3ccccc32)[nH]c2nc(-c3ccccc3)nn12` [1-12], the Kd was over 500 nM. On to `O=c1cc(CN2CCCc3ccccc32)[nH]c2nc(-c3ccccc3)nn12` [1-13], for which the “FABP4 TdF Kd” value is recorded as “B (0.5 ≦ B < 0.001 μM)”. Regarding `O=c1cc(CN2Cc3ccccc3C2)[nH]c2nc(-c3ccccc3)nn12` [1-14], the Kd is over 500 nM. Consider `CN(Cc1cc(=O)n2nc(-c3ccccc3)nc2[nH]1)C1CCCCC1` [1-15], for which the Kd was over 500 nM. With `CN(Cc1cc(=O)n2nc(-c3ccccc3)nc2[nH]1)c1cccc(Br)c1` [1-16], the “FABP4 TdF Kd” value is listed as “B (0.5 ≦ B < 0.001 μM)”. Same read-out and setting: the same measure for `O=c1cc(COc2ccccc2OC(F)(F)F)[nH]c2nc(-c3ccccc3)nn12` [1-18]: “B (0.5 ≦ B < 0.001 μM)”.

As for `O=c1cc(COc2cccnc2)[nH]c2nc(-c3ccccc3)nn12` [1-19], the Kd is over 500 nM. Still for that read-out and setting: the figure for `O=c1cc(COC2CCC2)[nH]c2nc(-c3ccccc3)nn12` [1-20] is over 500 nM. In the case of `O=c1cc(COC2CCCCC2)[nH]c2nc(-c3ccccc3)nn12` [1-21], the “FABP4 TdF Kd” value was “B (0.5 ≦ B < 0.001 μM)”. As for `Cn1nc(C(F)(F)F)cc1OCc1cc(=O)n2nc(-c3ccccc3)nc2[nH]1` [1-22], the Kd is over 500 nM. Same read-out and setting: the figure for `N#Cc1cc(F)cc(OCc2cc(=O)n3nc(-c4ccccc4)nc3[nH]2)c1` [1-23] is over 500 nM. With `N#Cc1c(Cl)cccc1OCc1cc(=O)n2nc(-c3ccccc3)nc2[nH]1` [1-24], the “FABP4 TdF Kd” value was “B (0.5 ≦ B < 0.001 μM)”. Take `CC(C)c1cccc(OCc2cc(=O)n3nc(-c4ccccc4)nc3[nH]2)c1` [1-25]: the Kd is over 500 nM. The same measure, in the same setting: the same measure for `Cc1cccc(OCc2cc(=O)n3nc(-c4ccccc4)nc3[nH]2)c1C` [1-26]: over 500 nM. For `Cc1ccc2ccccc2c1OCc1cc(=O)n2nc(-c3ccccc3)nc2[nH]1` [1-27], the “FABP4 TdF Kd” value was “B (0.5 ≦ B < 0.001 μM)”. Turning to `CN(C)c1cccc(OCc2cc(=O)n3nc(-c4ccccc4)nc3[nH]2)c1` [1-28], the Kd was over 500 nM. The same measure, in the same setting: the same measure for `COc1ccc2c(c1)CN(Cc1cc(=O)n3nc(-c4ccccc4)nc3[nH]1)C2=O` [1-29]: over 500 nM. Same read-out and setting: the same measure for `O=c1cc(COc2ccc(I)cc2)[nH]c2nc(-c3ccccc3)nn12` [1-30]: over 500 nM. Take `O=c1cc(COc2c(Cl)ccc(Cl)c2Cl)[nH]c2nc(-c3ccccc3)nn12` [1-31]: the “FABP4 TdF Kd” value was “B (0.5 ≦ B < 0.001 μM)”. Consider `COc1cc(OC)cc(OCc2cc(=O)n3nc(-c4ccccc4)nc3[nH]2)c1` [1-32], for which the “FABP4 TdF Kd” value is reported as “B (0.5 ≦ B < 0.001 μM)”.

In the case of `CCc1cccc(C)c1OCc1cc(=O)n2nc(-c3ccccc3)nc2[nH]1` [1-33], the “FABP4 TdF Kd” value is recorded as “B (0.5 ≦ B < 0.001 μM)”. As for `Cc1nc(-c2ccc(OCc3cc(=O)n4nc(-c5ccccc5)nc4[nH]3)c(F)c2)cs1` [1-34], the Kd was over 500 nM. As to `Cc1ccc(C(C)C)cc1N(C)Cc1cc(=O)n2nc(-c3ccccc3)nc2[nH]1` [1-35], the “FABP4 TdF Kd” value was “B (0.5 ≦ B < 0.001 μM)”. With `O=c1cc(CN2CCOc3ccccc32)[nH]c2nc(-c3ccccc3)nn12` [1-36], the Kd is over 500 nM. The same measure, in the same setting: the figure for `Cc1cc(OCc2cc(=O)n3nc(-c4ccccc4)nc3[nH]2)n(C)n1` [1-37] is over 500 nM; for `Cc1ccc(Br)c2ccn(Cc3cc(=O)n4nc(-c5ccccc5)nc4[nH]3)c12` [1-38] it is over 500 nM.

As to `Cc1c(F)cccc1OCc1cc(=O)n2nc(-c3ccccc3)nc2[nH]1` [1-39], the “FABP4 TdF Kd” value is “B (0.5 ≦ B < 0.001 μM)”. In the case of `CC(C)(C)OCc1cc(=O)n2nc(-c3ccccc3)nc2[nH]1` [1-40], the Kd was over 500 nM. On to `COc1ccc(OCc2cc(=O)n3nc(-c4ccccc4)nc3[nH]2)cc1OC` [1-41], for which the Kd was over 500 nM. Same read-out and setting: the figure for `O=c1cc(COC2CCNCC2)[nH]c2nc(-c3ccccc3)nn12` [1-42] is over 500 nM; for `O=c1cc(CN2CCc3ccccc32)[nH]c2nc(-c3ccccc3)nn12` [1-43] it is over 500 nM; for `Cc1csc(-c2ccc(OCc3cc(=O)n4nc(-c5ccccc5)nc4[nH]3)cc2)n1` [1-44] it is over 500 nM.

`CN1CCC(OCc2cc(=O)n3nc(-c4ccccc4)nc3[nH]2)CC1` [1-45]: the Kd was over 500 nM. As for `O=c1cc(COc2ccccc2)[nH]c2nc(-c3ccccc3)nn12` [1-46], the Kd is over 500 nM. Same read-out and setting: the figure for `O=c1cc(COc2ccccn2)[nH]c2nc(-c3ccccc3)nn12` [1-47] is over 500 nM.

Consider `O=c1ccccn1Cc1cc(=O)n2nc(-c3ccccc3)nc2[nH]1` [1-48], for which the Kd was over 500 nM.

Regarding `CC(=O)N1CCC(OCc2cc(=O)n3nc(-c4ccccc4)nc3[nH]2)CC1` [1-49], the Kd was over 500 nM.

Turning to `CN(Cc1cc(=O)n2nc(-c3ccccc3)nc2[nH]1)c1cccnc1Br` [1-51], the Kd is over 500 nM. Take `O=c1cc(CNC2CCc3c(Cl)cccc32)[nH]c2nc(-c3ccccc3)nn12` (stereo not drawn) [1-52]: the “FABP4 TdF Kd” value is “B (0.5 ≦ B < 0.001 μM)”. Take `CN(Cc1cc(=O)n2nc(-c3ccccc3)nc2[nH]1)C1Cc2ccccc2C1` [1-54]: the Kd is over 500 nM.

Take `COc1c(Cl)cccc1OCc1cc(=O)n2nc(-c3ccccc3)nc2[nH]1` [1-55]: the “FABP4 TdF Kd” value is recorded as “B (0.5 ≦ B < 0.001 μM)”. For `O=c1cc(CN2CCCC2Cc2ccc(F)cc2)[nH]c2nc(-c3ccccc3)nn12` (stereo not drawn) [1-56], the Kd was over 500 nM.

On to `O=c1cc(CN2CCCC2Cc2cccc(Cl)c2)[nH]c2nc(-c3ccccc3)nn12` (stereo not drawn) [1-57], for which the “FABP4 TdF Kd” value is “B (0.5 ≦ B < 0.001 μM)”.

Take `COc1cccc(C)c1OCc1cc(=O)n2nc(-c3ccccc3)nc2[nH]1` [1-58]: the “FABP4 TdF Kd” value is reported as “B (0.5 ≦ B < 0.001 μM)”. As to `O=c1cc(COc2cccc(C(F)(F)F)c2)[nH]c2nc(-c3ccccc3)nn12` [1-59], the Kd was over 500 nM. Consider `CCc1cccc(OCc2cc(=O)n3nc(-c4ccccc4)nc3[nH]2)c1` [1-60], for which the “FABP4 TdF Kd” value is listed as “B (0.5 ≦ B < 0.001 μM)”.

Turning to `O=c1cc(COc2ccc(Br)cc2)[nH]c2nc(-c3ccccc3)nn12` [1-61], the Kd was over 500 nM.

As for `O=c1cc(COc2ccccc2C(F)(F)F)[nH]c2nc(-c3ccccc3)nn12` [1-62], the “FABP4 TdF Kd” value is “B (0.5 ≦ B < 0.001 μM)”.

For the compound `Cc1ccc(OCc2cc(=O)n3nc(-c4ccccc4)nc3[nH]2)cc1C` [1-63], the “FABP4 TdF Kd” value is on record as “B (0.5 ≦ B < 0.001 μM)”. As for `O=c1cc(COc2cccc(OC(F)(F)F)c2)[nH]c2nc(-c3ccccc3)nn12` [1-64], the Kd was over 500 nM. As to `O=c1cc(COc2ccc(OC(F)(F)F)cc2)[nH]c2nc(-c3ccccc3)nn12` [1-65], the Kd was over 500 nM. For the compound `CC(C)c1ccccc1OCc1cc(=O)n2nc(-c3ccccc3)nc2[nH]1` [1-66], the “FABP4 TdF Kd” value is “B (0.5 ≦ B < 0.001 μM)”. Still for that read-out and setting: the entry for `O=c1cc(COc2cccc(Cl)c2Cl)[nH]c2nc(-c3ccccc3)nn12` [1-67] is “B (0.5 ≦ B < 0.001 μM)”; for `CCc1ccc(OCc2cc(=O)n3nc(-c4ccccc4)nc3[nH]2)c(C(C)(C)C)c1` [1-68] it is “B (0.5 ≦ B < 0.001 μM)”. For the compound `CCc1ccc(OCc2cc(=O)n3nc(-c4ccccc4)nc3[nH]2)c(OC)c1` [1-69], the “FABP4 TdF Kd” value is on record as “B (0.5 ≦ B < 0.001 μM)”. In the case of `Cc1cc(OCc2cc(=O)n3nc(-c4ccccc4)nc3[nH]2)ccc1C(C)C` [1-70], the “FABP4 TdF Kd” value is “B (0.5 ≦ B < 0.001 μM)”.

Take `CC(C)(C)c1ccc(OCc2cc(=O)n3nc(-c4ccccc4)nc3[nH]2)c(Cl)c1` [1-71]: the Kd was over 500 nM.

Consider `COc1cc(CC(C)=O)ccc1OCc1cc(=O)n2nc(-c3ccccc3)nc2[nH]1` [1-72], for which the Kd was over 500 nM. In the case of `O=c1cc(COc2ccccc2Br)[nH]c2nc(-c3ccccc3)nn12` [1-73], the “FABP4 TdF Kd” value is “B (0.5 ≦ B < 0.001 μM)”. For `Cc1cc(C(C)(C)C)ccc1OCc1cc(=O)n2nc(-c3ccccc3)nc2[nH]1` [1-74], the Kd is over 500 nM.

By Kd is commonly meant the equilibrium constant for the complex coming apart.
